In PMC7070320, “Unsymmetrically Substituted Dibenzo[b,f][1,5]-diazocine-6,12(5H,11H)dione—A Convenient Scaffold for Bioactive Molecule Design” (Molecules, 2020):
Where two headings read alike, the source gives them in different places.

Assays:
[1] = tested on: two normal (HEK293, EUFA30) and two cancerous (HeLa, U87) cell lines; test: Cytotoxicity assay (Alamar Blue), statements over all four cell lines; type: cell-based, human; conditions: concentrations tested: 1–200 µM
Method: (§1) Following cell lines: HeLa, U87, HEK293, EUFA30 were cultured in DMEM medium (Life Technology, Carlsbad, CA, USA) with 10% fetal bovine serum (Thermo Fisher Scientific, Waltham, MA, USA) and 0.1% antibiotics (penicillin, streptomycin, Life Technology, Carlsbad, CA, USA). Cells were grown in atmosphere of 5 and 95% CO2 and air, respectively, at 37 °C.
(§2) Exponentially growing cells at the density of 2 × 10^3 cells/well were seeded onto a 96-well plate, cultured for 18 h, and treated with newly synthesized compounds at concentrations 1–200 µM, or with DMSO as a control, for 24 or 48 h. Alamar Blue (Thermo Fisher Scientific, Waltham, MA, USA) was added accordingly to manufacturer protocol. After 4 h, light emission at 590 nm was measured with excitation at 560 nm using a scanning multiwell spectrophotometer (DTX 880, Beckman Coulter, Brea, CA, USA). The experiments were repeated at least three times with three replicates for each inhibitor concentration. After background subtraction, inhibition rates, IC50, were calculated as the component concentration inhibiting cell growth by 50%. All the calculations were performed using Origin 9.0 software.

[2] = tested on: HeLa; test: Cytotoxicity assay (Alamar Blue), HeLa cells; type: cell-based; conditions: Homo sapiens, read-out: IC50 based on the survival of cells
Method: as §1, §2

[3] = tested on: HEK293; test: Flow cytometry apoptosis detection (Annexin V-FITC / propidium iodide), HEK293; type: cell-based, human; conditions: HEK293, 200 µM; for cells in necrosis: control cells 20%; for cells in early apoptosis: control cells 1.3%
Method: as §1
(§3) The apoptosis detection kit (Annexin V-FITC BD Biosciences, Franklin Lakes, NJ, USA) was used to detect apoptosis by flow cytometry. Cells were seeded in 6-well plates at concentration of 5 × 10^5 cells/well, cultured for 18 h, and tested compound was applied for indicated time. Afterwards, cells were washed with PBS, resuspended in binding buffer at concentration of 2 × 10^6 cells/mL. The anti-Annexin V FITC-conjugated antibody and propidium iodide were added to 100 µl aliquots. Then, mixtures were incubated for 15 min at room temperature, supplemented with binding buffer to 500 µl and processed by BD FACSCalibur (BD Biosciences, Franklin Lakes, NJ, USA). Data were analyzed in Flowing Software version 2.5.1 (Flowing Software, http://www.uskonaskel.fi/flowingsoftware).

[4] = tested on: HEK293; test: Cytotoxicity assay (Alamar Blue), HEK293 cells; type: cell-based, human; conditions: read-out: IC50 based on the survival of cells
Method: as §1, §2

[5] = tested on: EUFA30; test: Cytotoxicity assay (Alamar Blue), EUFA30 cells; type: cell-based; conditions: Homo sapiens, read-out: IC50 based on the survival of cells
Method: as §1, §2

[6] = tested on: U87; test: Flow cytometry apoptosis detection (Annexin V-FITC / propidium iodide), U87; type: cell-based, human; conditions: U87, 200 µM; for cells in late apoptosis: control 1.6%; for cells in necrotic phase: 48 h, control 17%; for cells in necrosis: control 8.6%
Method: as §1, §3

[7] = tested on: U87; test: Cytotoxicity assay (Alamar Blue), U87 cells; type: cell-based, human; conditions: read-out: IC50 based on the survival of cells
Method: as §1, §2

[8] = tested on: HeLa; test: Flow cytometry apoptosis detection (Annexin V-FITC / propidium iodide), HeLa; type: cell-based, human; conditions: 200 µM
Method: as §1, §3

[9] = Homo sapiens, HEK293, 24 h, HEK293, 24 h of treatment
[10] = Homo sapiens, U-87 MG, 24 h, U87, 24 h of treatment
[11] = Homo sapiens, U-87 MG, 48 h, U87, 48 h of treatment
[12] = Homo sapiens, HEK293, 48 h, HEK293, 48 h of treatment

O=C1Nc2ccc(Cl)cc2C(=O)Nc2ccccc21 [Compound 10a, 2-Chlorodibenzo[b,f][1,5]diazocine-6,12(5H,11H)-dione]
melting point: 275 to 276 °C
cytotoxic effect (in words) [1]: no cytotoxic effect in the concentration range tested

O=C1Nc2ccc(Br)cc2C(=O)Nc2ccccc21 [Compound 10b, 2-Bromodibenzo[b,f][1,5]diazocine-6,12(5H,11H)-dione]
IC50 ([2]; 24 h of treatment): 97.3 ± 13.7 µM
melting point: 283 to 284 °C
cytotoxic effect (in words) [1]: showed a cytotoxic effect while maintaining the selectivity of action

COc1cc2c(cc1OC)C(=O)Nc1ccc(Br)cc1C(=O)N2 [Compound 10c, 8-Bromo-2,3-dimethoxydibenzo[b,f][1,5]diazocine-6,12(5H,11H)-dione]
melting point: 195 to 196 °C
cytotoxic effect (in words) [1]: no cytotoxic effect in the concentration range tested

CN1C(=O)c2ccccc2NC(=O)c2ccccc21 [Compound 10d, 5-Methyldibenzo[b,f][1,5]diazocine-6,12(5H,11H)-dione]
melting point: 258 to 259 °C

CN1C(=O)c2cc(Br)ccc2NC(=O)c2ccccc21 [Compound 10e, 2-Bromo-11-methyldibenzo[b,f][1,5]diazocine-6,12(5H,11H)-dione]
IC50 ([2]; 24 h of treatment): > 200 µM
melting point: 247 to 248 °C

CN1C(=O)c2cc([N+](=O)[O-])ccc2NC(=O)c2ccccc21 [Compound 10f, 11-Methyl-2-nitrodibenzo[b,f][1,5]diazocine-6,12(5H,11H)-dione]
IC50 ([2]; 24 h of treatment): 206 ± 12.8 µM
melting point: 225 to 226 °C
cells in late apoptosis ([3]; 24 h, control cells 0.4%): 0.5%
cells in necrosis ([3]; 24 h): 39%
cells in late apoptosis ([3]; 48 h, control cells 0.5%): 3%
cells in early apoptosis ([3]; 48 h): 6.6%
cytotoxic effect (in words) [1]: showed a cytotoxic effect while maintaining the selectivity of action

COc1cc2c(cc1OC)C(=O)N(C)c1ccccc1C(=O)N2 [Compound 10g, 2,3-Dimethoxy-11-methyldibenzo[b,f][1,5]diazocine-6,12(5H,11H)-dione]
melting point: 271 to 272 °C

CN1C(=O)c2cc3ccccc3cc2NC(=O)c2cc(Cl)ccc21 [Compound 10h, 2-Chloro-5-methylbenzo[b]naphtho[2,3-f][1,5]diazocine-6,14(5H,13H)-dione]
IC50 ([2]; 24 h of treatment): 107 ± 10 µM
IC50 ([2]; 48 h of treatment): 108 ± 8.6 µM
melting point: 270 to 271 °C
IC50 [4, 9]: > 200 µM
IC50 ([5]; Eufa30, 24 h of treatment): 170 ± 21.1 µM
IC50 ([5]; Eufa30, 48 h of treatment): 200 ± 13.9 µM
cells in early apoptosis ([6]; 24 h, control 1.2%): 4.1%
cells in late apoptosis ([6]; 24 h): 6.9%
cells in necrotic phase [6]: 36.2%
cells in late apoptosis ([3]; 24 h, control cells 0.4%): 3%
cells in necrosis ([3]; 24 h): 32%
cells in late apoptosis ([3]; 48 h, control cells 0.5%): 3.2%
cells in early apoptosis ([3]; 48 h): 3.8%
IC50 [7, 10]: 149 ± 9 µM
IC50 [7, 11]: 182 ± 5.6 µM
cytotoxic effect (in words) [1]: showed a cytotoxic effect while maintaining the selectivity of action

O=C1Nc2ccccc2C(=O)N(Cc2ccccc2)c2ccccc21 [Compound 10i, 5-Benzyldibenzo[b,f][1,5]diazocine-6,12(5H,11H)-dione]
melting point: 212 to 213 °C

O=C1Nc2ccccc2C(=O)N(Cc2ccc(Br)cc2)c2ccccc21 [Compound 10j, 5-(4-Bromobenzyl)dibenzo[b,f][1,5]diazocine-6,12(5H,11H)-dione]
IC50 ([2]; 24 h of treatment): 138 ± 14.1 µM
IC50 ([2]; 48 h of treatment): 203 ± 4 µM
melting point: 222 to 223 °C
IC50 [4, 12]: 192 ± 12.2 µM
cells in late apoptosis ([6]; 24 h): 5.2%
cells in necrosis ([6]; 24 h): 17.8%
cells in necrotic phase [6]: 28.1%
cells in late apoptosis ([3]; 24 h, control cells 0.4%): 10%
cells in necrosis ([3]; 24 h): 22%
cells in late apoptosis ([3]; 48 h, control cells 0.5%): 4.4%
cells in early apoptosis ([3]; 48 h): 4%
cytotoxic effect (in words) [1]: showed a cytotoxic effect while maintaining the selectivity of action

CN1C(=O)c2cc(Br)ccc2N(Cc2cccc3ccccc23)C(=O)c2ccccc21 [Compound 10k, 2-Bromo-11-methyl-5-(naphthalen-1-ylmethyl)dibenzo[b,f][1,5]diazocine-6,12(5H,11H)-dione]
IC50 ([2]; 24 h of treatment): 75.3 ± 1.6 µM
IC50 ([2]; 48 h of treatment): 124 ± 5.4 µM
melting point: 255 to 256 °C
changes in the apoptosis/necrosis phases in relation to control ([8]; 24 and 48 h): did not observe any changes in the apoptosis/necrosis phases in relation to control
IC50 [4, 9]: 119 ± 7.1 µM
IC50 [4, 12]: 138 ± 12 µM
IC50 ([5]; Eufa30, 24 h of treatment): 87.6 ± 8.1 µM
IC50 ([5]; Eufa30, 48 h of treatment): 74.4 ± 6.7 µM
changes in the apoptosis/necrosis phases in relation to control ([6]; 24 and 48 h): did not observe any changes in the apoptosis/necrosis phases in relation to control
changes in the apoptosis/necrosis phases in relation to control ([3]; 24 and 48 h): did not observe any changes in the apoptosis/necrosis phases in relation to control
IC50 [7, 10]: 75.4 ± 8.7 µM
IC50 [7, 11]: 197 ± 9.4 µM

O=C1Nc2nccnc2C(=O)Nc2ccc(Cl)cc21 [Compound 10m, 8-Chloropyrazino[3,2-c][1,5]benzodiazocine-6,12(5H,11H)-dione]
melting point: 346 to 347 °C

CCOC(=O)CN1C(=O)c2ccccc2N(C)C(=O)c2ccccc21 [Compound 10n, ethyl 2-(11-methyl-6,12-dioxo-11,12-dihydrodibenzo[b,f][1,5]diazocin-5(6H)-yl)acetate]
melting point: 125 to 126 °C

CC(=O)N1C(=O)c2ccccc2N(C)C(=O)c2ccccc21 [Compound 10o, 5-acetyl-11-methyldibenzo[b,f][1,5]diazocine-6,12(5H,11H)-dione]
melting point: 193 to 194 °C

COc1cc2c(cc1OC)C(=S)Nc1ccc(Br)cc1C(=S)N2 [Compound 10p, 8-bromo-2,3-dimethoxydibenzo[b,f][1,5]diazocine-6,12(5H,11H)-dithione]
IC50 ([2]; 24 h of treatment): 115 ± 4.5 µM
IC50 ([2]; 48 h of treatment): 204 ± 6.5 µM
melting point: 186 to 187 °C (dec.)
percentage of necrotic cells ([8]; 24 h, non-treated control 21.1%): 34.5%
percentage of necrotic cells ([8]; 48 h, control cells 22.1%): 53.4%
IC50 ([4]; HEK293, 24 h of treatment): 202 ± 7.9 µM
IC50 [4, 9]: > 200 µM
IC50 [4, 12]: 145 ± 8.5 µM
IC50 ([5]; Eufa30, 24 h of treatment): > 200 µM
IC50 ([5]; Eufa30, 48 h of treatment): 158 ± 9.6 µM
cells in necrosis ([6]; 24 h): 14%
cells in necrotic phase [6]: 46.6%
IC50 [7, 10]: 170 µM
IC50 ([7]; U87, 24 h of treatment): 172 ± 10 µM
cytotoxic effect (in words) [1]: showed a cytotoxic effect while maintaining the selectivity of action
